According to article PMC8400120, “Synthesis of Novel Methyl 7-[(Hetero)arylamino]thieno[2,3-b]pyrazine-6-carboxylates and Antitumor Activity Evaluation: Effects in Human Tumor Cells Growth, Cell Cycle Analysis, Apoptosis and Toxicity in Non-Tumor Cells” (Molecules, 2021):
“Also recorded” adds a separate entry of the source.

Columns and labels:
[1] = SRB cell growth inhibition assay, non-tumor Vero cells (toxicity); type: cell-based; conditions: African green monkey, Vero cells (non-tumor kidney cell line), 48 h incubation, mean ± SD
Protocol: (§1) The antitumor potential of the di(hetero)arylamines 2a–2o was evaluated using the sulforhodamine B (SRB) assay to establish some structure–activity relationships. Four human tumor cell lines (acquired from Leibniz-Institut DSMZ) were used: gastric adenocarcinoma (AGS), colorectal adenocarcinoma (CaCo-2), breast adenocarcinoma (MCF7), and non-small-cell lung cancer (NCI-H460), as well as a non-tumor cell line from African green monkey kidney (Vero) to evaluate the toxicity of the compounds. Ellipticine was used as a positive control, and the results are presented in GI50 values (µM) (Table 2).
(§2) Each cell line was prepared in 96-well plates, at the required density (1.0 × 10^4 cells/well) and incubated for 24 h to achieve cell attachment. The solutions of the compounds were applied and incubated for another 48 h. GI50 values (µM) corresponding to the compound concentration that inhibited 50% of cell growth were determined using the sulforhodamine B assay. Two separate tests were carried out for each compound, in duplicate, with the effects expressed as mean values and standard deviation (SD). Ellipticine was used as a positive control.

[2] = test system: colorectal adenocarcinoma (CaCo-2); test: SRB cell growth inhibition assay, CaCo-2; type: cell-based, human; conditions: for GI50: CaCo-2, SRB assay, 48 h incubation, mean ± SD
Protocol: as §1, §2

[3] = test system: gastric adenocarcinoma (AGS); test: SRB cell growth inhibition assay, AGS; type: cell-based, human; conditions: for GI50: AGS, SRB assay, 48 h incubation, mean ± SD; for Selectivity for AGS among the cell lines used: comparison of GI50 values
Protocol: as §1, §2

[4] = test system: non-small-cell lung carcinoma (NCI-H460); test: SRB cell growth inhibition assay, NCI-H460; type: cell-based, human; conditions: 48 h incubation, mean ± SD
Protocol: as §1, §2

[5] = test system: breast carcinoma (MCF7); test: SRB cell growth inhibition assay, MCF7; type: cell-based, human; conditions: MCF-7, SRB assay, 48 h incubation, mean ± SD
Protocol: as §1, §2

[6] = test system: AGS cells; test: Flow cytometric apoptosis detection (FITC Annexin V/PI); type: cell-based, human; conditions: at GI50 concentration, 72 h; for Cell death in apoptosis assay: vs blank
Protocol: Apoptosis induction was performed using the Fluorescein Isothiocyanate (FITC) Annexin V Apoptosis Kit (BD Biosciences, San Jose, CA, USA), and measured by flow cytometry for compounds 2b, 2f, and 2g (Figure 3). FITC Annexin V staining was used to determine the percentage of cells within a population that are actively undergoing apoptosis. […] Apoptosis detection was performed using the Fluorescein Isothiocyanate (FITC) Annexin V Apoptosis Kit (BD Biosciences, San Jose, CA, USA) and flow cytometry. FITC Annexin V staining is used to determine the percentage of cells within a population that are actively undergoing apoptosis. The cells were washed twice with PBS and resuspended cells in 1× Binding Buffer (10 mM HEPES/NaOH, pH 7.4, 140 mM NaCl, 2.5 mM CaCl2) at a concentration of 1 × 10^6 cells/mL. Following this, 100 μL of the solution (1 × 10^5 cells) was transferred to a 5 mL culture tube and 5 μL of FITC Annexin V (BD Biosciences, San Jose, CA, USA) and 5 μL of PI (BD Biosciences, San Jose, CA, USA) were added to each tube, and they were incubated in the dark, at room temperature, for 15 min. Finally, 400 μL of 1× Binding Buffer was added to each tube. Next, 30,000 cells were acquired using an Accuri C6 flow cytometer (BD Biosciences, San Jose, CA, USA), and the percentage of cell distribution was evaluated with Accuri C6 software (BD Biosciences, San Jose, CA, USA). Ellipticine was used as a positive control at its GI50 concentration for AGS cell line.

[7] = test system: AGS cells; test: Flow cytometric cell cycle analysis (PI staining); type: cell-based, human; conditions: at GI50 concentration, 72 h, vs blank
Protocol: This assay is based on the measurement of the DNA content in the PI-labeled nuclei. […] Cell cycle analysis was performed using propidium iodide (PI) staining and flow cytometry. This assay is established on the measurement of the DNA content of nuclei labeled with PI. Following this, the cells were staining according to the protocol PI/RNASE Solution (Immunostep, Spain, Salamanca). The harvested cells corresponding to 2 × 10^5 to 1 × 10^6 cells, were centrifuged for 5 min at 300g, and the supernatant was removed. The cells were fixed and added to 200 µL of 70% ethanol and left in the ethanol at 4 °C for 30 min. Following this, the cells were washed once in 2 mL phosphate-buffered saline (PBS) and centrifuged for 5 min at 300g and resuspended in 500 μL of PI solution (PI/RNASE) and incubated in the dark, at room temperature, for 15 min. Cell cycle phase distribution was evaluated using an Accuri C6 flow cytometer (BD Biosciences, San Jose, CA, USA). The DNA content of at least 20,000 cells was counted per sample, and the percentage of cells in different phases (G0/G1, S, and G2/M phases) of the cell cycle was evaluated using BD Accuri C6 software (BD Biosciences, San Jose, CA, USA). Ellipticine was used as a positive control at its GI50 concentration for AGS cell line.

Row | Compound | GI50 at 48 h [1] [µM] | melting point [°C] | GI50 ([2]; Homo sapiens, Caco-2, 48 h) [µM] | GI50 ([3]; Homo sapiens, 48 h) [µM] | GI50 ([4]; Homo sapiens, NCI-H460, 48 h) [µM] | GI50 ([5]; Homo sapiens, MCF7, 48 h) [µM] | further results
1 | COC(=O)c1sc2nccnc2c1Nc1ccccc1[N+](=O)[O-] [2o, Methyl 7-[(2-Nitrophenyl)amino]thieno[2,3-b]pyrazine-6-carboxylate] | 92 ± 8 | 225 to 227 | 31.2 ± 0.2 | 55 ± 0.3 | 43 ± 2 | 103 ± 3 | 
2 | COC(=O)c1sc2nccnc2c1Nc1cccc(F)c1 [2j, Methyl 7-[(3-Fluorophenyl)amino]thieno[2,3-b]pyrazine-6-carboxylate] | 149 ± 4 |  | 142 ± 11 | 86 ± 6 | 69 ± 7 | 96 ± 6 | 
3 | COC(=O)c1sc2nccnc2c1Nc1cc(OC)cc(OC)c1 [2g, Methyl 7-[(3,5-Dimethoxyphenyl)amino]thieno[2,3-b]pyrazine-6-carboxylate] | 144 ± 10 |  | 38 ± 4 | 7.8 ± 0.2 | 120 ± 10 | 182 ± 5 | Selectivity for AGS among the cell lines used [3]: selective for this cell line; High number of cells in apoptosis (expected from GI50 values) [6]: not verified; Apoptotic cells ([6]; Figure 4): 19,6%; Dead cells ([6]; Figure 4): 60,4%; Live Cells ([6]; Figure 4): 19,0%; Cell death in apoptosis assay [6]: large amount of cell death; AGS cell cycle profile histogram [7]: high percentage of cell death and an atypical distribution on cell cycle profile
4 | COC(=O)c1sc2nccnc2c1Nc1ccc(F)cc1 [2k, Methyl 7-[(4-Fluorophenyl)amino]thieno[2,3-b]pyrazine-6-carboxylate] | 149 ± 7 | 171 to 173 | 62 ± 4 | 118 ± 2 | 84 ± 2 | 160 ± 7 | 
5 | COC(=O)c1sc2nccnc2c1Nc1ccccc1 [2a, Methyl 7-(Phenylamino)thieno[2,3-b]pyrazine-6-carboxylate] | 120 ± 6 | 154 to 156 | 38 ± 2 | 95 ± 9 | 122 ± 9 | 97 ± 2 | 
6 | COC(=O)c1sc2nccnc2c1Nc1ccc(C#N)cc1 [2n, Methyl 7-[(4-Cyanophenyl)amino]thieno[2,3-b]pyrazine-6-carboxylate] | 48 ± 4 | 214 to 216 | 10.9 ± 0.4 | 39 ± 3 | 105 ± 8 | 103 ± 2 | Selectivity for CaCo-2 among the cell lines used ([2]; comparison of GI50 values): selective for this cell line; also recorded: selective against CaCo-2 cell line
7 | COC(=O)c1sc2nccnc2c1Nc1ccc(OC)cc1OC [2e, Methyl 7-[(2,4-Dimethoxyphenyl)amino]thieno[2,3-b]pyrazine-6-carboxylate] | 138 ± 8 | 159 to 161 | 56 ± 2 | 34 ± 2 | 200 ± 3 | 140 ± 7 | 
8 | COC(=O)c1sc2nccnc2c1Nc1ccccc1OC [2b, Methyl 7-[(2-Methoxyphenyl)amino]thieno[2,3-b]pyrazine-6-carboxylate] | 21.29 ± 0.03 |  | 36 ± 2 | 9.8 ± 0.2 | 45 ± 1 | 127 ± 9 | Selectivity for AGS among the cell lines used [3]: selective for this cell line; High number of cells in apoptosis (expected from GI50 values) [6]: not verified; Cell death in apoptosis assay [6]: moderated cell death compared to the blank; Effect on G0/G1 phases of AGS cell cycle [7]: cell cycle arrest in G0/G1 phases, although this result was not statistically significant; Effect on G2/M phase of AGS cell cycle [7]: did not present any difference in the percentage of cells compared to the blank
9 | COC(=O)c1sc2nccnc2c1-n1cccc1 [2m, Methyl 7-(1H-pyrrol-1-yl)thieno[2,3-b]pyrazine-6-carboxylate] | 140 ± 12 | 166 to 168 | 43.3 ± 0.3 | 88.6 ± 0.1 | 49 ± 2 | 128 ± 2 | 
10 | COC(=O)c1sc2nccnc2c1Nc1cccnc1 [2l, Methyl 7-[(Pyridin-3-yl)amino]thieno[2,3-b]pyrazine-6-carboxylate] | 110 ± 5 | 150 to 152 | 45 ± 3 | 63.3 ± 0.1 | 122 ± 11 | 116 ± 5 | 
11 | COC(=O)c1sc2nccnc2c1Nc1ccccc1F [2i, Methyl 7-[(2-Fluorophenyl)amino]thieno[2,3-b]pyrazine-6-carboxylate] | 117 ± 10 |  | 88.4 ± 0.2 | 48 ± 4 | 76 ± 1 | 128 ± 5 | 
12 | COC(=O)c1sc2nccnc2c1Nc1cccc(OC)c1 [2c, Methyl 7-[(3-Methoxyphenyl)amino]thieno[2,3-b]pyrazine-6-carboxylate] | 94 ± 3 | 171 to 173 | 56 ± 1 | 98 ± 3 | 96 ± 1 | 160 ± 6 | 
13 | Cc1c2ccncc2c(C)c2c1[nH]c1ccccc12 [Ellipticine, reference compound] | 0.6 ± 0.1 |  | ≤ 1 | ≤ 1 | ≤ 1 | ≤ 1 | GI50 [2]: 0.8 ± 0.1 µM; GI50 [3]: 0.9 ± 0.1 µM; GI50 [4]: 1.01 ± 0.01 µM; GI50 [5]: 1.02 ± 0.004 µM
14 | COC(=O)c1sc2nccnc2c1Nc1ccc(OC)c(OC)c1 [2f, Methyl 7-[(3,4-Dimethoxyphenyl)amino]thieno[2,3-b]pyrazine-6-carboxylate] | 53 ± 3 |  | < 10 | < 10 | 41 ± 3 | 87 ± 1 | GI50 [2]: 8 ± 1 µM; GI50 [3]: 9.2 ± 0.2 µM; High number of cells in apoptosis (expected from GI50 values) [6]: not verified; Cell death in apoptosis assay [6]: moderated cell death compared to the blank; Effect on G0/G1 phases of AGS cell cycle [7]: cell cycle arrest in G0/G1 phases, although this result was not statistically significant; Effect on G2/M phase of AGS cell cycle [7]: did not present any difference in the percentage of cells compared to the blank
15 | COC(=O)c1sc2nccnc2c1Nc1ccc(OC)cc1 [2d, Methyl 7-[(4-Methoxyphenyl)amino]thieno[2,3-b]pyrazine-6-carboxylate] | 127 ± 3 |  | 60 ± 2 | 59 ± 3 | 52.8 ± 0.3 | 136 ± 3 | 
16 | COC(=O)c1sc2nccnc2c1Nc1cc(OC)c(OC)c(OC)c1 [2h, Methyl 7-[(3,4,5-Trimethoxyphenyl)amino]thieno[2,3-b]pyrazine-6-carboxylate] | 53 ± 5 |  | 9.2 ± 0.3 | 33 ± 3 | 77 ± 6 | 105.7 ± 0.5 | 
